The values that follow come from publication PMC7206119, “RIP1 inhibition blocks inflammatory diseases but not tumor growth or metastases” (Cell Death and Differentiation, 2019).

Each structure is given as a SMILES string.

Common to all, as to test: biochemical
Holding throughout (design): DiscoverX kinase panel, active-site competition binding (KINOMEscan type), percent of control at one concentration
Holding throughout (settings): competition binding, percent of control

Assay [1] addresses PKN2 (Homo sapiens, UniProt Q16513).
Assay [2] has as its target TLK2 (Homo sapiens, UniProt Q86UE8).
Assay [3] addresses T1, CDC2L5 (Homo sapiens, UniProt Q14004).
T1 construct: gene CDK13

The target of assay [4] is NEK3 (Homo sapiens, UniProt P51956).
Chain of NEK3 (P51956 whole entry): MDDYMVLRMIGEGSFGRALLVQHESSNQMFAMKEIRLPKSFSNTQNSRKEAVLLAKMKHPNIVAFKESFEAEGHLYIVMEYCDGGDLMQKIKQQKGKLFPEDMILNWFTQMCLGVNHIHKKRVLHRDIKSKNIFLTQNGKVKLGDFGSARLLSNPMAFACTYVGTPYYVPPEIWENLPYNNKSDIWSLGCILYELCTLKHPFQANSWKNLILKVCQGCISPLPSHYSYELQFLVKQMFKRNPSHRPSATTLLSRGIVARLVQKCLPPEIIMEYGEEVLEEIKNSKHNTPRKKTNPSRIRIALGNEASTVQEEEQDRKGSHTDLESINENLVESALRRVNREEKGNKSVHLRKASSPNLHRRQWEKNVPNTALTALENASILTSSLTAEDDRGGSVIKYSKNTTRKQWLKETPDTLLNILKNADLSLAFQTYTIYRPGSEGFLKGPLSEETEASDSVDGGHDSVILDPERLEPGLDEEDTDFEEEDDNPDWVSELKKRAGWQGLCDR
Assay [5] concerns the target SRPK1 (Homo sapiens, UniProt Q96SB4).
Assay [6] addresses MAP3K1 (Homo sapiens, UniProt Q13233).
Assay [7] addresses T2, CDC2L2 (Homo sapiens, UniProt Q9UQ88).
T2 construct: gene CDK11A

Assay [8] has as its target MARK3 (Homo sapiens, UniProt P27448).
In assay [9] the target is FGFR1 (Homo sapiens, UniProt P11362).
The target in assay [10] is KIT(V559D) (Homo sapiens, UniProt P10721, V559D).
Assay [11] addresses PRKCH (Homo sapiens, UniProt P24723).
Assay [12] has as its target T3, FAK (Homo sapiens, UniProt Q05397).
T3 construct: gene PTK2

Assay [13] concerns the target EPHA8 (Homo sapiens, UniProt P29322).
Assay [14] addresses T4, TRKA (Homo sapiens, UniProt P04629).
T4 construct: gene NTRK1

Assay [15] addresses T5, CAMK1B (Homo sapiens, UniProt Q6P2M8).
T5 construct: gene PNCK

Assay [16] addresses DMPK (Homo sapiens, UniProt Q09013).
For assay [17], the target named is WEE2 (Homo sapiens, UniProt P0C1S8).
For assay [18], the target named is NEK10 (Homo sapiens, UniProt Q6ZWH5).
Chain of NEK10 (Q6ZWH5 whole entry): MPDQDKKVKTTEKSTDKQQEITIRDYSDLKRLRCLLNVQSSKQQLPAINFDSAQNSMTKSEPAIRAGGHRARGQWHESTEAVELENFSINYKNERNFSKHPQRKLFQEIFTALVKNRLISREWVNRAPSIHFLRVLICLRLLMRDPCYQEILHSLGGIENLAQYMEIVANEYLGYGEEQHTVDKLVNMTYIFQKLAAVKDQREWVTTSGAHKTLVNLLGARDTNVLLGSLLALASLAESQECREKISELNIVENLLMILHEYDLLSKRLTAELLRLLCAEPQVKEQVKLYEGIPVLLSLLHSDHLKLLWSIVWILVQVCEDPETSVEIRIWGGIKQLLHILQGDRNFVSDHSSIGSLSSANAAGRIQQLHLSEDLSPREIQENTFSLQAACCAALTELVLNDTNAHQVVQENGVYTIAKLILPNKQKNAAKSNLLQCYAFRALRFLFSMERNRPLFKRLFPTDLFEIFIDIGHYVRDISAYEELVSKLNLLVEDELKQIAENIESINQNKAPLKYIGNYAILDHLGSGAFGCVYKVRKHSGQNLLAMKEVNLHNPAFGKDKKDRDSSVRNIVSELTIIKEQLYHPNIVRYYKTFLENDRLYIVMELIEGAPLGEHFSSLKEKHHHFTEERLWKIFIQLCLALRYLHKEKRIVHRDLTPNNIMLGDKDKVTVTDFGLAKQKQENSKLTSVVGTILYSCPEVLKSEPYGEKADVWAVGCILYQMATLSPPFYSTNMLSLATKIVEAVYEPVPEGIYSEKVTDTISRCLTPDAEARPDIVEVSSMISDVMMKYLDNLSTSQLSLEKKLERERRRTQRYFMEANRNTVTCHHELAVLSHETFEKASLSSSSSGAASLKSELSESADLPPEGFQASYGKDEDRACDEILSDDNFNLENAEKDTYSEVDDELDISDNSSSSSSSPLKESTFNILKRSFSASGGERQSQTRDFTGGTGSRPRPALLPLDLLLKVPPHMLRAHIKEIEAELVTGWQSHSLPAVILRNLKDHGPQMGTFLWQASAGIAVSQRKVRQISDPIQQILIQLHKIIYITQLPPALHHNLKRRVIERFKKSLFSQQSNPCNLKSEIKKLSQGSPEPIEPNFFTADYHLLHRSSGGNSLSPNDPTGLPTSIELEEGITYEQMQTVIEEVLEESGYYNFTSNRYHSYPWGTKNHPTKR
In assay [19] the target is TAOK3 (Homo sapiens, UniProt Q9H2K8).
In assay [20] the target is ACVR2A (Homo sapiens, UniProt P27037).
Chain of ACVR2A (P27037 whole entry): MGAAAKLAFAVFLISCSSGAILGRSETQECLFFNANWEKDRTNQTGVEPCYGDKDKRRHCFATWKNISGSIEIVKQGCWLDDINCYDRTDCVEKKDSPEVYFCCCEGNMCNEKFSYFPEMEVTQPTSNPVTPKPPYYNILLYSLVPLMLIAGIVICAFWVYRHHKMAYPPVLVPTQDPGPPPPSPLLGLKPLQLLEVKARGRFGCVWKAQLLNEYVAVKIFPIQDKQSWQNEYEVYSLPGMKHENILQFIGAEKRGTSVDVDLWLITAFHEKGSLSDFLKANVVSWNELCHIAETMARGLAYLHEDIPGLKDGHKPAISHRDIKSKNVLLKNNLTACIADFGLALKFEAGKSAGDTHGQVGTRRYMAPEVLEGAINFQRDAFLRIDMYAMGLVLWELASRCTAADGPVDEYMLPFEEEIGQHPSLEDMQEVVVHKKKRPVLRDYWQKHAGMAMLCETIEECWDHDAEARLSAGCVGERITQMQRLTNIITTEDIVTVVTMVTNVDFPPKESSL
For assay [21], the target named is NEK1 (Homo sapiens, UniProt Q96PY6).
The target of assay [22] is CAMKK1 (Homo sapiens, UniProt Q8N5S9).

T3 sequence (Q05397 whole entry): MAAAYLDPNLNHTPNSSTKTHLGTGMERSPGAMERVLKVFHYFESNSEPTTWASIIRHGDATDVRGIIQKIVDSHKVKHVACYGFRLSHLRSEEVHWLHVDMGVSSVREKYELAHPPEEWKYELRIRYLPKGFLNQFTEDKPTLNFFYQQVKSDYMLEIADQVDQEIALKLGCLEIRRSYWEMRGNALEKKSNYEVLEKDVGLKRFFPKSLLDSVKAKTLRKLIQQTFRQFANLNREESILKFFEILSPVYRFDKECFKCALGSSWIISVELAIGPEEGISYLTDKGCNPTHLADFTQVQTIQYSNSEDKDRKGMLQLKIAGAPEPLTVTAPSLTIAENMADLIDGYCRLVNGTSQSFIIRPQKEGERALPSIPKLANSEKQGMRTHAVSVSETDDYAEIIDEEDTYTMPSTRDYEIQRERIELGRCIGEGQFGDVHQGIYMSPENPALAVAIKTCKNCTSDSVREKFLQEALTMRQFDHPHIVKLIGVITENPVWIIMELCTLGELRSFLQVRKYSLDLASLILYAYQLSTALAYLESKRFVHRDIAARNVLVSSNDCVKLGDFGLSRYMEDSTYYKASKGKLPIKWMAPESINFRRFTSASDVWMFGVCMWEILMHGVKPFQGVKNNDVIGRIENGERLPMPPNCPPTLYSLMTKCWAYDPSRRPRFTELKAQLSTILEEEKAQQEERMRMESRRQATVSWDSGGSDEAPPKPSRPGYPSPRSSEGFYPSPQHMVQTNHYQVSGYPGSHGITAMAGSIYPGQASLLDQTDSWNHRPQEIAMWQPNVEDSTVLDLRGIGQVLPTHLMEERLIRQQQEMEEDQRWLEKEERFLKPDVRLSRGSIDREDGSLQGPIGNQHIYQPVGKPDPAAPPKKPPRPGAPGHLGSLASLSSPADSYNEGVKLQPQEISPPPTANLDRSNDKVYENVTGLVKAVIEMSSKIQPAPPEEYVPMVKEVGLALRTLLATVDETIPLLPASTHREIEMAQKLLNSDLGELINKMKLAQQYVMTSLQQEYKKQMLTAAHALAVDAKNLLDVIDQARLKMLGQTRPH
T1 sequence (Q14004 whole entry): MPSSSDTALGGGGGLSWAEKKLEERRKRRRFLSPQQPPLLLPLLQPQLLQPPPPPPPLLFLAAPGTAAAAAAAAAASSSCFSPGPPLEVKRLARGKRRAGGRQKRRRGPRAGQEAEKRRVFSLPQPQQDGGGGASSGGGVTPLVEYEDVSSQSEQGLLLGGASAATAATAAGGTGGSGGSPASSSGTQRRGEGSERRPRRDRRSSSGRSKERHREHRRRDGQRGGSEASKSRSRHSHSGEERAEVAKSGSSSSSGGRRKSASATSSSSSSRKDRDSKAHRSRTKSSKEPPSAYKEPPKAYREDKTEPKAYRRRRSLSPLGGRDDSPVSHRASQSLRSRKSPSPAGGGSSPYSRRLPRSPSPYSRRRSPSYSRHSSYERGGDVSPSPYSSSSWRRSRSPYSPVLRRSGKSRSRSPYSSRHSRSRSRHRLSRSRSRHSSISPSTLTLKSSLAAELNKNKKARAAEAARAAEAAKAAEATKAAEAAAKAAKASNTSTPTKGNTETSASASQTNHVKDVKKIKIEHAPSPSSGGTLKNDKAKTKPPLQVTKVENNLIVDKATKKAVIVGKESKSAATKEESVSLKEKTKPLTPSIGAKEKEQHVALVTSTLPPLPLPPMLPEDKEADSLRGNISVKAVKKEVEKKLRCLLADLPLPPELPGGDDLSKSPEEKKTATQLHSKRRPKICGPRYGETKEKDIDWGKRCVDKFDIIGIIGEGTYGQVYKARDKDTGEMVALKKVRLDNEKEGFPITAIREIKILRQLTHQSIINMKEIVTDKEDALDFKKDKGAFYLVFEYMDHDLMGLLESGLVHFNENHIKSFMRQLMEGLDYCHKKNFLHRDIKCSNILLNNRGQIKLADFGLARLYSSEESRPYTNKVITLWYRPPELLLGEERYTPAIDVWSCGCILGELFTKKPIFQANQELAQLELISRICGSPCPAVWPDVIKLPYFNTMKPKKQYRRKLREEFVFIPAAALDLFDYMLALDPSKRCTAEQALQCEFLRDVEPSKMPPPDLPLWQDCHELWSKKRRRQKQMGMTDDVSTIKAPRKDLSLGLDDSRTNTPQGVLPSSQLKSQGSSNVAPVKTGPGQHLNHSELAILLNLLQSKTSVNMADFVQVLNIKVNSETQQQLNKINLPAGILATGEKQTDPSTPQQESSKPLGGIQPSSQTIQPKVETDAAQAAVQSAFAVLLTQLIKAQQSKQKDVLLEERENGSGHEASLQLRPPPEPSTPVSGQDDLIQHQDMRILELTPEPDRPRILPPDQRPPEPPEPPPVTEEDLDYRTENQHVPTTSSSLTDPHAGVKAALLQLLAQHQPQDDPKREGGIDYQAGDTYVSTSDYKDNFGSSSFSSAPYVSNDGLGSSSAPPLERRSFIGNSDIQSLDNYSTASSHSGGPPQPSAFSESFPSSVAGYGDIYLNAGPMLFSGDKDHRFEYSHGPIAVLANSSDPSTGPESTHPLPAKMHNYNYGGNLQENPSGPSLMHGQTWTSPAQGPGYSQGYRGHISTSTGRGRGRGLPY
T5 sequence (Q6P2M8 whole entry): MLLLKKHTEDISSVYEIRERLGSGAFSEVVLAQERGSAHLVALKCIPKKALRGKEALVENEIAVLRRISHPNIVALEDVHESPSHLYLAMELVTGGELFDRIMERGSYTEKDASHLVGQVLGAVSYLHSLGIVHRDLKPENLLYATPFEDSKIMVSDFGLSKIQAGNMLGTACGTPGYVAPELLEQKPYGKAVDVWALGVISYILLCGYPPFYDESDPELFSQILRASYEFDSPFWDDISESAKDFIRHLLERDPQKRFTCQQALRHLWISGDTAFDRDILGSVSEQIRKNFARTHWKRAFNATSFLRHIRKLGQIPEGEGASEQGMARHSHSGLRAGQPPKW

Consider `COc1cc2c(cn1)N(C)C(=O)[C@@H](NC(=O)c1nc3n(n1)[C@H](c1ccccc1)CC3)CC2` [GNE684, (S)-N-((S)-7-methoxy-1-methyl-2-oxo-2,3,4,5-tetrahydro-1H-pyrido[3,4-b]azepin-3-yl)-5-phenyl-6,7-dihydro-5H-pyrrolo[1,2-b][1,2,4]triazole-2-carboxamide], for which the remaining binding at 10 µM in [1] amounted to 84%; in assay [2], 100%; in assay [3] it was 100%; in assay [4] it was 94%; in [5], 93%; in [6] it was 90%. In addition, the remaining binding at 10 µM in assay [7] was determined as 98%; in assay [8], 100%; in assay [9] it was 92%; in assay [10] it was 100%; in assay [11], 89%; in assay [12] it was 85%. Besides, the remaining binding at 10 µM worked out at 100% in assay [13]; 87% in assay [14]; 100% in [15]; 83% in [16]; 95% in [17]; 100% in [18]. The remaining binding at 10 µM is 60% in [19], 82% in assay [20], 100% in assay [21] and 99% in [22].
